Legend:
[1] = system: female Aedes aegypti (Thailand strain) mosquitoes; test: Contact irritancy assay on mosquitoes (Example 2); assay type: in vivo; details: netting treated at 0.0025-2.5 nmol/cm^2; 10 minutes
[2] = system: female Aedes aegypti (Thailand strain) mosquitoes; test: Contact irritancy and spatial repellency screening (Example 4); assay type: in vivo; details: Dosage 25 nmol/cm^2; mapped with 3000 other compounds
[3] = system: Ae. Aegypti, That strain (pyrethroid tolerant); test: Contact irritancy on pyrethroid tolerant mosquitoes (Example 5); assay type: in vivo
[4] = system: Ae. Aegypti, Isla Mujer strain (metabolically pyrethroid resistant); test: Contact irritancy on metabolically resistant mosquitoes (Example 5); assay type: in vivo
Method: Four compounds of formula (I) were tested for contact irritancy (i.e., movement away from the source after physical contact) at low doses on female Aedes aegypti (Thailand strain) mosquitoes. The contact irritant response was determined by use of the contact irritant assay disclosed by Grieco et al. in “A New Classification System for the Actions of IRS Chemicals Traditionally Used for Malaria Control,” Plos One, Issue 8 (2007) (available at www.plosone.org). The assay used was a cylindrical assembly that included a metal treatment end to which 10 mosquitoes were introduced and a clear receiving chamber. The treatment end included a netting strip (nylon organdy) that was treated with the insecticide of interest at the relevant dose. A butterfly valve separated the treatment end from the remainder of the assembly.
Each composition was applied to the netting strip at a varied dose via a 1.5 ml acetone solution. Four (4) treatment concentrations were used—0.0025 nmol/cm^2, 0.025 nmol/cm^2, 0.25 nmol/cm^2 and 2.5 nmol/cm^2. Netting was allowed to dry for 15 minutes prior to placement in the cylinder. Control assays were performed with netting treated with acetone only.
For each run, 10 mosquitoes were transferred into the treatment end of the assembly and, after 30 seconds, the butterfly valve was opened. The valve was closed after 10 minutes and the number of mosquitoes in the clear end (i.e., the number of escaped mosquitoes) was tested.
The contact irritancy protocol of Example 2 was used to determine contact irritancy against mosquitoes (Ae. Aegypti) that had acquired metabolic resistance against pyrethroids. Alphacypermethrin and transfluthrin were also tested. Three mosquito strains were tested—Houston which is pyrethroid susceptible, That which is pyrethroid tolerant and Isla Mujer which is metabolically pyrethroid resistant.

[5] = system: Ae. Aegypti strains Houston, That and Isla Mujer; test: Spatial repellency on metabolically resistant mosquitoes (Example 6); assay type: in vivo
[6] = system: Ae. aegypti Houston strain (pyrethroid susceptible); test: Toxicity assay on treated netting (Example 7), Houston strain; assay type: in vivo
In short: (§1)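 Twenty Ae. aegypti per chamber exposed to treated netting for 1 h, knockdown recorded, then held with 10% sucrose. Mortality scored at 24 h; acetone-treated netting as control, six replicates per treatment concentration.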

[7] = system: Ae. aegypti Thai strain (pyrethroid tolerant); test: Toxicity assay on treated netting (Example 7), Thai strain; assay type: in vivo
In short: as §1

[8] = system: Ae. aegypti Isla mujeres strain (metabolically pyrethroid resistant); test: Toxicity assay on treated netting (Example 7), Isla mujeres strain; assay type: in vivo
In short: as §1

[9] = system: Susceptible An. Gambiae; test: Bottle toxicity assay (Example 8), susceptible mosquitoes; assay type: in vivo, Anopheles gambiae
Method: Several compounds were tested to determine their toxic effect on knockdown resistant Anopheles gambiae mosquitoes and susceptible mosquitoes. Acetone and different amounts of pesticides were added to 250 ml bottles. In one bottle, only acetone was added as a control. The bottles were rotated in all directions while uncapped until all acetone was evaporated and the insecticide was coated onto the inside surfaces of the bottle. A number of knockdown resistant Anopheles gambiae mosquitoes were added to the bottle. The number of dead mosquitoes was recorded at 1 hour and 24 hours.

[10] = Dose 0.025 nm/cm^2, Time 1 hour
[11] = Dose 0.025 nm/cm^2, Time 24 hours
[12] = Dose 0.0725 nm/cm^2, Time 1 hour
[13] = Dose 0.0725 nm/cm^2, Time 24 hours
[14] = Dose 0.125 nm/cm^2, Time 1 hour
[15] = Dose 0.125 nm/cm^2, Time 24 hours
[16] = Dose 0.25 nm/cm^2, Time 24 hours
[17] = Dose 2.5 nm/cm^2, Time 24 hours

With `CC1(C)C(C=C(Cl)C(F)(F)F)C1C(=O)OCc1ccc(F)c(C(F)(F)F)c1F` (stereo not drawn) [Compound 1405] the “contact irritancy (FIG. 1)” value [1] was “showed contact irritancy at relatively low doses”, the “contact irritancy and spatial repellency relative to screened compounds (FIG. 3)” value [2] was “superior contact irritancy and spatial repellency relative to most screened compounds” and the “contact irritancy, tolerant strain (FIG. 4)” value [3] was “contact irritants for tolerant strains”. The “contact irritancy, resistant strain (FIG. 4)” value [4] was “effective in resistant strains”, the “spatial repellency, all strains (FIG. 5)” value [5] was “spatial repellants for all strains” and the “Houston (% dead (SE))” value [6, 10] was 100%. For the same compound, the “Houston (% dead (SE))” value [6, 11] was 100%, the “Houston (% dead (SE))” value [6, 12] was 100% and the “Houston (% dead (SE))” value [6, 13] was 100%. The “Houston (% dead (SE))” value [6, 14] was 100%, the “Houston (% dead (SE))” value [6, 15] was 100% and the “Houston (% dead (SE))” value ([6]; Dose 0.25 nm/cm^2, Time 1 hour) was 100%. For the same compound, the “Houston (% dead (SE))” value [6, 16] was 100%, the “Houston (% dead (SE))” value ([6]; Dose 2.5 nm/cm^2, Time 1 hour) was 100% and the “Houston (% dead (SE))” value [6, 17] was 100%. The “Thai (% dead (SE))” value [7, 10] was 83.3%, the “Thai (% dead (SE))” value [7, 11] was 15% and the “Thai (% dead (SE))” value [7, 12] was 100%. The “Thai (% dead (SE))” value [7, 13] was 100%, the “Thai (% dead (SE))” value [7, 14] was 100% and the “Thai (% dead (SE))” value [7, 15] was 100%. For the same compound, the “Thai (% dead (SE))” value ([7]; Dose 2.5 nm/cm^2, Time 1 hour) was 100%, the “Thai (% dead (SE))” value [7, 17] was 100% and the “Isla mujeres (% dead (SE))” value [8, 10] was 100%. The “Isla mujeres (% dead (SE))” value [8, 11] was 11.84%, the “Isla mujeres (% dead (SE))” value [8, 12] was 100% and the “Isla mujeres (% dead (SE))” value [8, 13] was 9.69%. The “Isla mujeres (% dead (SE))” value [8, 14] was 100%, the “Isla mujeres (% dead (SE))” value [8, 15] was 9.89% and the “Isla mujeres (% dead (SE))” value ([8]; Dose 0.25 nm/cm^2, Time 1 hour) was 100%. The “Isla mujeres (% dead (SE))” value [8, 16] was 100%, the “Isla mujeres (% dead (SE))” value ([8]; Dose 2.5 nm/cm^2, Time 1 hour) was 100% and the “Isla mujeres (% dead (SE))” value [8, 17] was 100%. The “toxicity to resistant populations compared with standard compounds” value ([8]; summary of Table 2) was “more toxic to resistant populations than permethrin, matfluthrin and transfluthrin”, the “Susceptible An. Gambiae (% dead (SE))” value ([9]; Dose 0.00025 μg/bottle, Strain Tested F123, Time 1 hour) was 100% and the “Susceptible An. Gambiae (% dead (SE))” value ([9]; Dose 0.00025 μg/bottle, Strain Tested F123, Time 24 hours) was 87%. The “Susceptible An. Gambiae (% dead (SE))” value ([9]; Dose 0.0025 μg/bottle, Strain Tested F122, Time 1 hour) was 100%, the “Susceptible An. Gambiae (% dead (SE))” value ([9]; Dose 0.0025 μg/bottle, Strain Tested F122, Time 24 hours) was 95% and the “Susceptible An. Gambiae (% dead (SE))” value ([9]; Dose 0.0025 μg/bottle, Strain Tested F123, Time 1 hour) was 100%. The “Susceptible An. Gambiae (% dead (SE))” value ([9]; Dose 0.0025 μg/bottle, Strain Tested F123, Time 24 hours) was 100%, the “Susceptible An. Gambiae (% dead (SE))” value ([9]; Dose 0.025 μg/bottle, Strain Tested F122, Time 1 hour) was 100% and the “Susceptible An. Gambiae (% dead (SE))” value ([9]; Dose 0.025 μg/bottle, Strain Tested F122, Time 24 hours) was 100%. For the same compound, the “Susceptible An. Gambiae (% dead (SE))” value ([9]; Dose 0.025 μg/bottle, Strain Tested F123, Time 1 hour) was 100%, the “Susceptible An. Gambiae (% dead (SE))” value ([9]; Dose 0.025 μg/bottle, Strain Tested F123, Time 24 hours) was 100% and the “Susceptible An. Gambiae (% dead (SE))” value ([9]; Dose 0.25 μg/bottle, Strain Tested F122, Time 1 hour) was 100%. For the same compound, the “Susceptible An. Gambiae (% dead (SE))” value ([9]; Dose 0.25 μg/bottle, Strain Tested F122, Time 24 hours) was 100%, the “Susceptible An. Gambiae (% dead (SE))” value ([9]; Dose 0.25 μg/bottle, Strain Tested F123, Time 1 hour) was 100% and the “Susceptible An. Gambiae (% dead (SE))” value ([9]; Dose 0.25 μg/bottle, Strain Tested F123, Time 24 hours) was 100%. For the same compound, the “Susceptible An. Gambiae (% dead (SE))” value ([9]; Dose 2.5 μg/bottle, Strain Tested F122, Time 1 hour) was 100%, the “Susceptible An. Gambiae (% dead (SE))” value ([9]; Dose 2.5 μg/bottle, Strain Tested F122, Time 24 hours) was 100% and the “Susceptible An. Gambiae (% dead (SE))” value ([9]; Dose 2.5 μg/bottle, Strain Tested F123, Time 1 hour) was 100%. The “Susceptible An. Gambiae (% dead (SE))” value ([9]; Dose 2.5 μg/bottle, Strain Tested F123, Time 24 hours) was 100%, the “Susceptible An. Gambiae (% dead (SE))” value ([9]; Dose 25 μg/bottle, Strain Tested F123, Time 1 hour) was 100% and the “Susceptible An. Gambiae (% dead (SE))” value ([9]; Dose 25 μg/bottle, Strain Tested F123, Time 24 hours) was 100%.

From patent publication US20150038707A1, “PROCESS FOR MAKING CGRP RECEPTOR ANTAGONISTS” (Merck Sharp & Dohme Corp., priority 2012, published 2015)
